Test system: Burgundy amaranth (Amaranthus hypochondriacus)
Assay: Herbicidal bioassay against Burgundy amaranth (foliar spray, evaluated 6 days after application)
Format: in vivo
Conditions: 144 h, read-out: (%) Mortality/Control at Concentration (μg/mL)
Text: As noted above, the herbicidal compositions can be chemically synthesized or derived from a biological organism. Here, the culture broth derived from the 100 L fermentation Burkholderia (A396) was extracted to give crude extract. The crude extract was then fractionated using reversed-phase C18 vacuum liquid chromatography (H2O/CH3OH) to give 5 fractions. These fractions were then screened for herbicidal activity using plant assay with Amaranthus hypochondriacus (Burgundy amaranth). The active fractions (F3 & F4) were then subjected to reversed phase HPLC to give pure compounds, which were then tested in the above mentioned bioassay to locate/identify the active compounds. […] To confirm the identity of the compounds, additional spectroscopic data such as LC-MS and NMR were recorded. Based on the detailed analysis of the data, the two compounds were identified as FR 901464 (MW 507) and spliceostatin C (MW 519). Note that different fermentation method would produce different (or no) amount of the below compound(s), some none at all.
Burgundy amaranth (Amaranthus hypochondriacus) plants were grown in a greenhouse to the 3-4 leaf stage in 2.5 cm square pots containing plant growth mix with slow release fertilizer. Treatments were then applied using a research cabinet track sprayer fitted with an 8001 nozzle and at a carrier volume of 20 gal/A. Negative controls were sprayed with water. Pots were blocked and randomized by treatment after spray and placed in a growth room at 25° C. and 50% RH, and watered as necessary. Plants were evaluated 6 days after application for visual damage and fresh weight. Data in Table 1 was subjected to ANOVA and means were separated using the Tukey method with 95% confidence intervals.

Row | Compound | mortality at 0.65 µg/mL [%] | mortality at 1.3 µg/mL [%]
1 | CC(=O)OC(C)/C=C\C(=O)NC1CC(C)C(C/C=C(C)/C=C/C2OC(C)(O)CC3(CO3)C2O)OC1C (stereo not shown) [FR901464] | 44 | 84
2 | CC(=O)OC(C)/C=C\C(=O)NC1CC(C)C(C/C=C(C)/C=C/C2CC3(CO3)CC(CC(=O)O)O2)OC1C (stereo not shown) [Spliceostatin C] | 44 | 80

Source: US12484582B2, “Herbicidal compound” (PRO FARM GROUP, INC., priority 2017, dated 2025)
